Read-outs that look alike come from different tables or passages of the source.
Legend:
human α3β4 nAChR [1] = molecular target: T1, human α3β4 nAChR (Homo sapiens, UniProt P30926+P32297); details: cited from earlier work; for Selectivity Ratios α4β2/α3β4 / Selectivity Ratios α7/α3β4: lead compounds, ratio of Ki values
T1 construct: expressed in transfected cells

human α7 nAChR [2] = molecular target: T2, human α7 nAChR (Homo sapiens, UniProt P36544); set-up: method as in PMID 27774124; details: lead compounds, ratio of Ki values; cited from earlier work
T2 construct: expressed in transfected cells

human α3β4 nAChR [3] = molecular target: T1, human α3β4 nAChR; test: Competitive radioligand displacement binding assay, membranes of HEK293 cells stably transfected with human α3β4 nAChR; details: for Selectivity Ratios α4β2/α3β4 / Selectivity Ratios α7/α3β4: ratio of Ki values; for Selectivity Ratios α7/α3β4: given as fold
human α7 nAChR [4] = molecular target: T2, human α7 nAChR; test: Radioligand displacement binding assay, membranes of SH-SY5Y cells stably transfected with human α7 nAChR; details: for Selectivity Ratios α4β2/α7: ratio of Ki values
human α4β2 nAChR = molecular target: T3, human α4β2 nAChR (Homo sapiens, UniProt P17787+P43681); test: Competitive radioligand displacement binding assay, membranes of HEK293 cells stably transfected with human α4β2 nAChR
T3 construct: expressed in transfected cells

[5] = SH-SY5Y membranes, [3H]methyllycaconitine ~0.5 nM per table footnote, mean of two independent experiments, single values in brackets, read-out: Binding Affinity Ki α7

SMILES	Ki (human α3β4 nAChR [1]; selective α3β4 nAChR ligands)	Selectivity Ratios α4β2/α7 (human α7 nAChR [2])	Selectivity Ratios α4β2/α3β4 (human α3β4 nAChR [1])	Selectivity Ratios α7/α3β4 (human α3β4 nAChR [1])	melting point	Ki (human α3β4 nAChR [3])	Selectivity Ratios α4β2/α3β4 (human α3β4 nAChR [3])	Selectivity Ratios α7/α3β4 (human α3β4 nAChR [3])	Ki (human α7 nAChR [4])	Selectivity Ratios α4β2/α7 (human α7 nAChR [4])	Ki (human α4β2 nAChR)	Ki (human α7 nAChR [4]; [5])
Fc1ccc(-c2cn([C@@H]3CN4CCC3CC4)nn2)cc1 [(S)-T1]	< 10 nM	–	–	–	–	–	–	–	–	–	–	–
Oc1ccc(-c2cn([C@@H]3CN4CCC3CC4)nn2)cc1 [(S)-QND8]	–	15.7	186	11.8	–	–	–	–	–	–	–	–
Fc1cccc(-c2cn([C@@H]3CN4CCC3CC4)nn2)c1 [(S)-T2]	–	0.79	231	294	–	–	–	–	–	–	–	–
Fc1cc(-c2cn([C@@H]3CN4CCC3CC4)nn2)ccc1OCc1ccccc1 [AK3, (1R,3S,4R)-3-(4-(4-(Benzyloxy)-3-fluorophenyl)-1H-1,2,3-triazol-1-yl)quinuclidine]	–	–	–	–	173 to 175 °C	3.18 nM	56.6	3069	9760 nM	0.02	180 nM	–
Oc1ccc(-c2cn([C@@H]3CN4CCC3CC4)nn2)cc1F [AK1, 2-Fluoro-4-(1-((1R,3S,4R)-quinuclidin-3-yl)-1H-1,2,3-triazol-4-yl)phenol]	–	–	–	–	258 °C (dec.)	2.28 nM	221	11.7	–	18.9	504 nM	26.7 nM
Oc1ccc(-c2cn([C@H]3CN4CCC3CC4)nn2)cc1F [AK2, 2-Fluoro-4-(1-((1S,3R,4S)-quinuclidin-3-yl)-1H-1,2,3-triazol-4-yl)phenol]	–	–	–	–	275 °C (dec.)	601 nM	9.95	0.01	–	1331	5980 nM	4.49 nM
Fc1cc(-c2cn([C@H]3CN4CCC3CC4)nn2)ccc1OCc1ccccc1 [AK4, (1S,3R,4S)-3-(4-(4-(Benzyloxy)-3-fluorophenyl)-1H-1,2,3-triazol-1-yl)quinuclidine]	–	–	–	–	180 to 181 °C	112 nM	37.3	0.48	–	77.9	4180 nM	53.6 nM
